Experimental data taken from US9221827B2, “Antimicrobial compounds and methods of making and using the same” (Melinta Therapeutics, Inc., priority 2011, dated 2015).

test system: Escherichia coli strain ATCC25922; assay: standard microdilution assay to determine minimum inhibitory concentrations (MICs); assay type: cell-based; details: Escherichia coli strain ATCC25922, microdilution
Experimental: The in vitro activity of the compounds of the present invention can be determined. Antimicrobial testing is typically performed to determine the minimum inhibitory concentration (MIC). Minimum inhibitory concentrations (MICs) are determined by the microdilution method in a final volume of 100 μl according to protocols outlined by The Clinical and Laboratory Standards Institute (CLSI). Performance standards for reference strains are assessed within the same experimental design to maintain quality control. See, for example, Clinical Laboratory Standards Institute: Methods for dilution antimicrobial susceptibility tests for bacteria that grow aerobically M7-A8. Approved Standard-Eighth Edition. Wayne, Pa.: CLSI; December 2008; and Clinical Laboratory Standards Institute: Performance Standards for Antimicrobial Susceptibility Testing M100-S20; Approved Standard-Twentieth Edition. Wayne, Pa.: CLSI; June 2010.
The compounds of the present invention were tested for antimicrobial activity. […] The compounds were run against Escherichia coli strain ATCC25922 using a standard microdilution assay to determine minimum inhibitory concentrations (MICs). […] A “N/A” means that data is unavailable. It will be recognized by one skilled in the art that the compounds can be assessed against other bacterial organisms and that the presentation of data for activity against Escherichia coli is illustrative and in no way is intended to limit the scope of the present invention. The compounds of the present invention can be assayed against a range of other microorganisms depending upon the performance activity desired to be gathered. Furthermore, the “+”, “−”, and “N/A” representation and the selection of a cutoff value of 16 micrograms/ml is also illustrative and in no way is intended to limit the scope of the present invention.

| Compound | E. coli ATCC25922 MIC |
| --- | --- |
| NCCCCc1cc(-c2cc3cn(-c4ccc(CNCCCN=C(N)N)cc4)c(=O)nc3[nH]2)c(Cl)c(C(F)(F)F)c1 [Compound 64] | + (a “+” indicates that the compound has an MIC value of 16 micrograms/ml or less) |
| CC(N)CCCc1cc(Cl)c(F)c(-c2cc3cn(-c4ccc(C(C)NCCCNC(=N)N)cc4)c(=O)nc3[nH]2)c1 (centres unmarked) [Compound 269] | + (a “+” indicates that the compound has an MIC value of 16 micrograms/ml or less) |
| CSc1cc(CCCCN)cc(-c2cc3cn(-c4ccc(CNCCCNC(=N)N)cc4)c(=O)nc3[nH]2)c1C(F)(F)F [Compound 262] | + (a “+” indicates that the compound has an MIC value of 16 micrograms/ml or less) |
| CC(N)CCCc1cc(OC(F)F)c(F)c(-c2cc3cn(-c4ccc(C(C)NCCCNC(=N)N)cc4)c(=O)nc3[nH]2)c1 (centres unmarked) [Compound 299] | + (a “+” indicates that the compound has an MIC value of 16 micrograms/ml or less) |
| C=C[C@H](NCCCNC(=N)N)c1ccc(-n2cc3cc(-c4cc(CCC[C@H](C)N)cc(SC(F)(F)F)c4)[nH]c3nc2=O)cc1 [Compound 473] | + (a “+” indicates that the compound has an MIC value of 16 micrograms/ml or less) |
| CC(N)CCCc1cc(Cl)c(F)c(-c2cc3cn(-c4ccc(C(CCO)NCCCNC(=N)N)cc4)c(=O)nc3[nH]2)c1 (centres unmarked) [Compound 506] | + (a “+” indicates that the compound has an MIC value of 16 micrograms/ml or less) |
| N=C(N)NCCCNCc1ccc(-n2cc3cc(-c4cc(CCCCN)c(OC(F)F)cc4F)[nH]c3nc2=O)cc1 [Compound 139] | + (a “+” indicates that the compound has an MIC value of 16 micrograms/ml or less) |
| N=C(N)NCCCNCc1ccc(-c2c[nH]c(NC(=O)Nc3cc(C(F)F)ccc3OCCCN)nc2=O)cc1 [Compound 188] | + (a “+” indicates that the compound has an MIC value of 16 micrograms/ml or less) |
| N=C(N)NCCCNCc1ccc(-n2cc3cc(-c4cc(C(O)CCCN)cc(C(F)(F)F)c4)[nH]c3nc2=O)cc1 (centres unmarked) [Compound 29] | + (a “+” indicates that the compound has an MIC value of 16 micrograms/ml or less) |
| C[C@@H](CN)CN1C[C@H](NC(=O)Nc2nc(=O)c(-c3ccc(CNCCCNC(=N)N)cc3)c[nH]2)C[C@H]1CNCCC1CC1 [Compound 153] | + (a “+” indicates that the compound has an MIC value of 16 micrograms/ml or less) |
| CC(N)CCc1cc(OC(F)(F)F)cc(-c2cc3cn(-c4ccc(CNCCCNC(=N)N)cc4)c(=O)nc3[nH]2)c1 (centres unmarked) [Compound 260] | + (a “+” indicates that the compound has an MIC value of 16 micrograms/ml or less) |
| CC(C)(N)CCc1cc(OC(F)(F)F)cc(-c2cc3cn(-c4ccc(CNCCCNC(=N)N)cc4)c(=O)nc3[nH]2)c1 [Compound 255] | + (a “+” indicates that the compound has an MIC value of 16 micrograms/ml or less) |
| CC(C)(CN)CCc1cc(Cl)c(F)c(-c2cc3cn(-c4ccc(CNCCCNC(=N)N)cc4)c(=O)nc3[nH]2)c1 [Compound 243] | + (a “+” indicates that the compound has an MIC value of 16 micrograms/ml or less) |
| CC(C)(N)CCCc1ccc(F)c(-c2cc3cn(-c4ccc(CNCCCNC(=N)N)cc4)c(=O)nc3[nH]2)c1 [Compound 130] | + (a “+” indicates that the compound has an MIC value of 16 micrograms/ml or less) |
| N=C(N)NCCCNCc1ccc(-n2cc3cc(-c4cc(CCC(O)CN)cc(Cl)c4F)[nH]c3nc2=O)cc1 (centres unmarked) [Compound 254] | + (a “+” indicates that the compound has an MIC value of 16 micrograms/ml or less) |
| COC(CCCN)c1cc(OC(F)(F)F)cc(-c2cc3cn(-c4ccc(CNCCCNC(=N)N)cc4)c(=O)nc3[nH]2)c1 (centres unmarked) [Compound 216] | + (a “+” indicates that the compound has an MIC value of 16 micrograms/ml or less) |
| N=C(N)NCCCNCc1ccc(-n2cc3cc(-c4cc(CCCCN)cc([N+](=O)[O-])c4Cl)[nH]c3nc2=O)cc1 [Compound 115] | + (a “+” indicates that the compound has an MIC value of 16 micrograms/ml or less) |
| N#Cc1cc(CCCCN)cc(-c2cc3cn(-c4ccc(CNCCCNC(=N)N)cc4)c(=O)nc3[nH]2)c1Cl [Compound 114] | + (a “+” indicates that the compound has an MIC value of 16 micrograms/ml or less) |
| CC(N)CCCc1cc(-c2cc3cn(-c4ccc(C(C)NCCCNC(=N)N)cc4)c(=O)nc3[nH]2)c(F)c(Cl)c1F (centres unmarked) [Compound 493] | + (a “+” indicates that the compound has an MIC value of 16 micrograms/ml or less) |
| C=CC(NCCCNC(=N)N)c1ccc(-n2cc3cc(-c4cc(CCCC(C)N)cc(C(F)(F)F)c4)[nH]c3nc2=O)cc1 (centres unmarked) [Compound 482] | + (a “+” indicates that the compound has an MIC value of 16 micrograms/ml or less) |
| C[C@H](NCCCNC(=N)N)c1ccc(-n2cc3cc(-c4cc(CCC5(CN)CC5)cc(SC(F)(F)F)c4)[nH]c3nc2=O)cc1 [Compound 310] | + (a “+” indicates that the compound has an MIC value of 16 micrograms/ml or less) |
| NCCCCc1cc(Cl)c(F)c(-c2cc3cn(-c4ccc(CNCCCN=C(N)N)cc4)c(=O)nc3[nH]2)c1 [Compound 91] | + (a “+” indicates that the compound has an MIC value of 16 micrograms/ml or less) |

same assay, conditions: Escherichia coli strain ATCC25922, standard microdilution assay

| Compound | E. coli ATCC25922 MIC |
| --- | --- |
| N=C(N)NCCCNCc1ccc(-n2cc3cc(-c4cc(CC5CC(CN)C5)cc(C(F)(F)F)c4)[nH]c3nc2=O)cc1 (centres unmarked) [Compound 349] | + (a “+” indicates that the compound has an MIC value of 16 micrograms/ml or less) |
| CC(NCCCNC(=N)N)c1ccc(-n2cc3cc(-c4cc(CCC5CC(N)C5)cc(Cl)c4F)[nH]c3nc2=O)cc1 (centres unmarked) [Compound 384] | + (a “+” indicates that the compound has an MIC value of 16 micrograms/ml or less) |
| CCC[C@H](NCCCNC(=N)N)c1ccc(-n2cc3cc(-c4cc(CCC[C@H](C)N)cc(C(F)(F)F)c4)[nH]c3nc2=O)cc1 [Compound 427] | + (a “+” indicates that the compound has an MIC value of 16 micrograms/ml or less) |
| C[C@H](N)CCCc1cc(SC(F)(F)F)c(Cl)c(-c2cc3cn(-c4ccc([C@@H](C)N)cc4)c(=O)nc3[nH]2)c1 [Compound 409] | − (a “−” indicates that the compound has an MIC value greater than 16 micrograms/ml) |
| N=C(N)NCCCNCc1ccc(-n2cc3cc(-c4cc(C5CCC(CN)CC5)cc(C(F)(F)F)c4)[nH]c3nc2=O)cc1 (mixture of isomers) [Compound 429] | + (a “+” indicates that the compound has an MIC value of 16 micrograms/ml or less) |
| N=C(N)NCCCNCc1ccc(-n2cc3cc(-c4cc(OC(F)(F)F)cc(C5CCC(CN)O5)c4)[nH]c3nc2=O)cc1 (centres unmarked) [Compound 435] | + (a “+” indicates that the compound has an MIC value of 16 micrograms/ml or less) |
| C[C@H](NCCCNC(=N)N)c1ccc(-n2cc3cc(-c4cc(C[C@H]5C[C@H](N)C5)cc(C(F)(F)F)c4)[nH]c3nc2=O)cc1 [Compound 396] | + (a “+” indicates that the compound has an MIC value of 16 micrograms/ml or less) |
| CC(C)c1cc(CCC[C@H](C)N)cc(-c2cc3cn(-c4ccc([C@H](C)NCCCNC(=N)N)cc4)c(=O)nc3[nH]2)c1F [Compound 447] | + (a “+” indicates that the compound has an MIC value of 16 micrograms/ml or less) |
| C[C@H](N)CCCc1cc(F)c(F)c(-c2cc3cn(-c4ccc(CNCCCNC(=N)N)cc4)c(=O)nc3[nH]2)c1 [Compound 463] | + (a “+” indicates that the compound has an MIC value of 16 micrograms/ml or less) |
| NCc1ccc(-n2cc3cc(-c4cc(CCC5(CN)CC5)cc(SC(F)(F)F)c4)[nH]c3nc2=O)cc1 [Compound 357] | − (a “−” indicates that the compound has an MIC value greater than 16 micrograms/ml) |
| CC(N)C(C)OCc1cc(OC(F)(F)F)cc(-c2cc3cn(-c4ccc(CNCCCNC(=N)N)cc4)c(=O)nc3[nH]2)c1 (centres unmarked) [Compound 418] | + (a “+” indicates that the compound has an MIC value of 16 micrograms/ml or less) |
| CC[C@H](NCCCNC(=N)N)c1ccc(-n2cc3cc(-c4cc(CCC[C@H](C)N)cc(SC(F)(F)F)c4)[nH]c3nc2=O)cc1 [Compound 407] | + (a “+” indicates that the compound has an MIC value of 16 micrograms/ml or less) |
| C[C@H](N)CCCc1cc(CC(C)(C)C)c(F)c(-c2cc3cn(-c4ccc([C@H](C)NCCCNC(=N)N)cc4)c(=O)nc3[nH]2)c1 [Compound 458] | + (a “+” indicates that the compound has an MIC value of 16 micrograms/ml or less) |
| CCc1cc(CCC[C@H](C)N)nc(-c2cc3cn(-c4ccc(CNCCCNC(=N)N)cc4)c(=O)nc3[nH]2)c1 [Compound 387] | + (a “+” indicates that the compound has an MIC value of 16 micrograms/ml or less) |
| C[C@H](N)CCCc1cc(OC(F)(F)F)cc(-c2cc3cn(-c4ccc([C@@H](C)N)cc4)c(=O)nc3[nH]2)c1 [Compound 405] | − (a “−” indicates that the compound has an MIC value greater than 16 micrograms/ml) |
| CC(N)CCCc1cc(Cl)c(F)c(-c2cc3cn(-c4ccc(C(C)NCCCNC(N)=NC5CNC5)cc4)c(=O)nc3[nH]2)c1 (centres unmarked) [Compound 383] | + (a “+” indicates that the compound has an MIC value of 16 micrograms/ml or less) |
